# US20230227466A1, “SUBSTITUTED THIENOPYRIMIDINES THAT INTERACT WITH THE RAS SUPERFAMILY FOR THE TREATMENT OF CANCERS, INFLAMMATORY DISEASES, RASOPATHIES, AND FIBROTIC DISEASE” (SHY Therapeutics, LLC, priority 2020, published 2023)
# Read-outs that look alike come from different tables or passages of the source.
# Assays:
# KRas G12C mutant = molecular target: T1, KRas G12C mutant (Homo sapiens, UniProt P01116, G12C); assay: Ras GTP binding domain inhibition assay (labeled-GTP competition, cell-free)
# T1 construct: made in house
# From the text: (§1) This is a competitive binding assay. It involves the immobilization of a protein on solid phase, interaction with a small molecule drug candidate, and then competitive binding with a labeled native GTP or GDP ligand.
# (§2) In theory, the assay is suitable for use with any GTP or GDP binding protein.
# (§3) The following method was developed as specific assay for the following proteins: KRas wild type, KRas Q61H mutant, KRas G12C mutant, KRas G12D mutant, Rac-1, and Rho-A.
# (§4) The small GTPases proteins: KRas wild type. KRas Q61H mutant, KRas G12C mutant, KRas G12D mutants, Rac-1, and Rho-A were expressed as His-tagged proteins. In addition, the Guanosine nucleotide Exchange Factor (GEF) Sos protein (residues 556-1049) was expressed as a His-tagged protein. In cells, the guanine nucleotide exchange factor Sos protein promotes activation of Ras proteins by stimulating an exchange of GDP for GTP. The inclusion of Sos to the Ras GTP binding domain inhibition assay may be considered as an alternative representation of physiological cellular conditions for evaluating the inhibitory activity of some of the tested small molecules.
# (§5) For the assay, all purified small GTPases proteins were diluted in Buffer-I or Buffer-II to a final concentration of 10-30 μg/mL. 200 μL of each diluted protein was added to a nickel-coated 96-well plate and incubated overnight at 4° C. Then the protein solution was discarded and 200 μL of Buffer-I or Buffer-II was added to each well in the presence of 1% DMSO. Compounds to be tested were added to the protein-coated wells at final concentration of 20 μM, and incubated for 3 hours at room temperature with and without 10-30 μg/mL of Sos added to the final hour of the incubation. When performing IC50 measurements a serial dilution of all tested concentrations was added. Then Cy3-GTP or Cy5-GTP was added to each well to a final concentration of 100 nM. The labeled GTP was incubated for 45 minutes at room temperature. Following GTP incubation, wells were washed 3× in Buffer-I or Buffer-II and 200 μL of Buffer-I or Buffer-II was added to each well. Following washes, the amount of bound labeled-GTP was measured using a SpectraMax M3 (Molecular Devices).
# KRas G12D mutant = molecular target: T2, KRas G12D mutant (Homo sapiens, UniProt P01116, G12D); assay: as above
# T2 construct: made in house
# From the text: as §1, §2, §3, §4, §5
# KRas Q61H mutant = molecular target: T3, KRas Q61H mutant (Homo sapiens, UniProt P01116, Q61H); assay: as above
# T3 construct: made in house
# From the text: as §1, §2, §3, §4, §5
# KRas wild type [1] = molecular target: T4, KRas wild type (Homo sapiens, UniProt P01116); assay: as above; set-up: made in house
# From the text: as §1, §2, §3, §4, §5
# Rac-1 [2] = molecular target: T5, Rac-1 (Homo sapiens, UniProt P63000); assay: as above; set-up: made in house
# From the text: as §1, §2, §3, §4, §5
# Rho-A [3] = molecular target: T6, Rho-A (Homo sapiens, UniProt P61586); assay: as above; set-up: made in house
# From the text: as §1, §2, §3, §4, §5
# K-Ras (G12C) [4] = molecular target: T7, K-Ras (G12C) (Homo sapiens, UniProt P01116, G12C); assay: MicroScale Thermophoresis (MST) GTP affinity; conditions: read-out: MST GTP affinity for binding domain
# From the text: (§6) As disclosed in International Application No. PCT/US2018/038613 and U.S. patent application Ser. No. 16/013,872, the affinity of GTP for the GTP binding domain of K-Ras utilizing a Scintillation Proximity Assay (SPA) and MicroScale Thermophoresis (MST) has been measured. These methods were not available when Wittinghofer and colleagues undertook their studies.
# (§7) This therefore led to the novel, unanticipated conclusion that compounds such as small molecules could be discovered that would bind to a Ras GTP binding domain and compete with the binding of GTP to Ras.
# (§8) See Khawaja et al., “Scintillation proximity assay in lead discovery”, Expert Opin. Drug Discov., 2008 November; 3(11):1267-80 regarding SPA procedures. See the following references regarding MST technology: Wienken et al., Nature Communications (2010), Protein binding assays in biological liquids using MicroScale Thermophoresis; Jerabek-Willemsen et al., ASSAY and Drug Development Technologies (2011), Molecular interaction studies using MicroScale Thermophoresis; Lin et al., Cell (2012), Inhibition of basal FGF receptor signaling by dimeric Grb2; Seidel et al., Angewandte Chemie (2012), Label-Free MicroScale Thermophoresis discriminates sites and affinity of protein-ligand binding; Seidel et al., Methods (2012), MicroScale Thermophoresis quantifies biomolecular interactions under previously challenging conditions; Parker & Newstead, Nature (2014), Molecular basis of nitrate uptake by the plant nitrate transporter NRT1.1; and Jerabek-Willemsen et al., Journal of Molecular Structure (2014), MicroScale Thermophoresis: Interaction analysis and beyond.
# K-Ras (G12D) [5] = molecular target: T8, K-Ras (G12D) (Homo sapiens, UniProt P01116, G12D); assay: MicroScale Thermophoresis (MST) GTP affinity; conditions: read-out: MST GTP affinity for binding domain
# From the text: as §6, §7, §8
# K-Ras (Q61H) [6] = molecular target: T9, K-Ras (Q61H) (Homo sapiens, UniProt P01116, Q61H); assay: MicroScale Thermophoresis (MST) GTP affinity; conditions: read-out: MST GTP affinity for binding domain
# From the text: as §6, §7, §8
# KRas wild type [7] = molecular target: T4, KRas wild type; assay: MicroScale Thermophoresis (MST) GTP affinity; conditions: read-out: MST GTP affinity for binding domain
# From the text: as §6, §7, §8
# Rac-1 [8] = molecular target: T5, Rac-1; assay: MicroScale Thermophoresis (MST) GTP affinity; conditions: read-out: MST GTP affinity for binding domain
# From the text: as §6, §7, §8
# Rho-A [9] = molecular target: T6, Rho-A; assay: MicroScale Thermophoresis (MST) GTP affinity; conditions: read-out: MST GTP affinity for binding domain
# From the text: as §6, §7, §8
# K-Ras (G12C) [10] = molecular target: T7, K-Ras (G12C); assay: Scintillation Proximity Assay (SPA) GTP affinity; conditions: read-out: SPA GTP affinity for binding domain
# From the text: as §6, §7, §8
# K-Ras (G12D) [11] = molecular target: T8, K-Ras (G12D); assay: Scintillation Proximity Assay (SPA) GTP affinity; conditions: read-out: SPA GTP affinity for binding domain
# From the text: as §6, §7, §8
# K-Ras (Q61H) [12] = molecular target: T9, K-Ras (Q61H); assay: Scintillation Proximity Assay (SPA) GTP affinity; conditions: read-out: SPA GTP affinity for binding domain
# From the text: as §6, §7, §8
# KRas wild type [13] = molecular target: T4, KRas wild type; assay: Scintillation Proximity Assay (SPA) GTP affinity; conditions: read-out: SPA GTP affinity for binding domain
# From the text: as §6, §7, §8
# Rac-1 [14] = molecular target: T5, Rac-1; assay: Scintillation Proximity Assay (SPA) GTP affinity; conditions: read-out: SPA GTP affinity for binding domain
# Rho-A [15] = molecular target: T6, Rho-A; assay: Scintillation Proximity Assay (SPA) GTP affinity; conditions: read-out: SPA GTP affinity for binding domain
# [16] = molecular target: K-Ras GTP binding domain (wild type and mutant K-Ras); assay: SPA and MST studies, GTP affinity across K-Ras forms
# From the text: as §7, §8
# Rac-1 and Rho-A = assay: SPA and MST studies, GTP affinity for Rho subfamily members; conditions: read-out: affinity of GTP for the binding domain of Rac-1 and Rho-A members of the Rho subfamily
# From the text: as §7, §8
# [17] = molecular target: GTP binding domain of Ras (Homo sapiens, UniProt P01112); conditions: literature (Feuerstein 1987; John 1990); cited from earlier work
# [18] = system: MIA-PaCa-2 pancreatic cancer cell line (KRAS G12C); assay: Cell proliferation assay (CellTiter 96 Aqueous One); assay type: cell-based; conditions: Homo sapiens
# Protocol: Cell lines: Human tumor-derived cell lines were purchased from American Type Culture Collection. Human tumor-derived pancreatic cancer cell line MIA-PACA2 (having a KRAS G12C mutation) and Panc-1 (having a KRAS G12D mutation), and Human non-small cell lung cancer (NSCLC) cell line A549 (having a KRAS G12S mutation) were grown in complete DMEM-High Glucose. Human colon cancer cell line SW-620 (having a KRAS G12V mutation) was grown in RPMI. All cell lines were supplemented with penicillin (100 U/mL), streptomycin (100 μg/mL), and 10% heat-inactivated FBS at 37° C. in a humidified incubator with 5% CO2.
# Method: Cells were plated at 2000 to 5000 cells/well density in 96-wells plate and cultured overnight. Small molecules to be tested were added to the cells in the final concentration of 10 μM in the presence of 0.3% DMSO and 10% FBS, and incubated for 2-4 days at 37° C. in a humidified incubator with 5% CO2. For IC50 value determination, serial dilutions of compounds were added to cells under the same conditions.
# Assay: At the end of the incubation period, cell viability was measured using the CellTiter 96® Aqueous One Solution Cell Proliferation Assay according to manufacturer specifications (Promega, Madison, Wis.). The percentage of small molecules inhibition of cellular proliferation was calculated from raw data.
# [19] = with SOS, read-out: KRas G12C mutant + SOS: % inh.
# [20] = without SOS, read-out: KRas G12C mutant: % inh.
# [21] = with SOS, read-out: KRas G12D mutant + SOS: % inh.
# [22] = without SOS, read-out: KRas G12D mutant: % inh.
# [23] = with SOS, read-out: KRas Q61H mutant + SOS: % inh.
# [24] = without SOS, read-out: KRas Q61H mutant: % inh.
# [25] = with SOS, read-out: KRas wild type + SOS: % inh.
# [26] = without SOS, read-out: KRas wild type: % inh.
# [27] = without SOS, read-out: Rac-1: % inh.
# [28] = without SOS, read-out: Rho-A: % inh.
Structure (SMILES),inhibition at 20 µM (KRas G12C mutant; [19]) [%],inhibition at 20 µM (KRas G12C mutant; [20]) [%],inhibition at 20 µM (KRas G12D mutant; [21]) [%],inhibition at 20 µM (KRas G12D mutant; [22]) [%],inhibition at 20 µM (KRas Q61H mutant; [23]) [%],inhibition at 20 µM (KRas Q61H mutant; [24]) [%],inhibition at 20 µM (KRas wild type [1]; [25]) [%],inhibition at 20 µM (KRas wild type [1]; [26]) [%],inhibition at 20 µM (Rac-1 [2]; [27]) [%],inhibition at 20 µM (Rho-A [3]; [28]) [%],affinity for the GTP binding domain of Ras [17],also measured
"Oc1nc(-c2ccc3[nH]ncc3n2)nc2c(-c3ccccn3)csc12 [Compound 93, 2-(1H-Pyrazolo[4,3-b]pyridin-5-yl)-7-(pyridin-2-yl)thieno[3,2-d]pyrimidin-4-ol]",1 to 25,26 to 50,1 to 25,26 to 50,1 to 25,1 to 25,0,26 to 50,1 to 25,51 to 75,–,–
Nc1nc2c(ncn2[C@@H]2O[C@H](COP(=O)(O)OP(=O)(O)OP(=O)(O)O)[C@@H](O)[C@H]2O)c(=O)[nH]1 [GTP],–,–,–,–,–,–,–,–,–,–,single to double digit picomolar,Kd (K-Ras (G12C) [4]): 207 ± 46 nM; Kd (K-Ras (G12D) [5]): 244 ± 12 nM; Kd (K-Ras (Q61H) [6]): 157 ± 21 nM; Kd (KRas wild type [7]): 463 ± 2 nM; Kd (Rac-1 [8]): 166 ± 10 nM; Kd (Rho-A [9]): 130 ± 5 nM; Kd (K-Ras (G12C) [10]): 258 ± 18 nM; Kd (K-Ras (G12D) [11]): 270 ± 15 nM; Kd (K-Ras (Q61H) [12]): 118 ± 11 nM; Kd (KRas wild type [13]): 243 ± 15 nM; Kd (Rac-1 [14]): 151 ± 14 nM; Kd (Rho-A [15]): 129 ± 12 nM; Kd [16]: 100 to 465 nM; Kd (Rac-1 and Rho-A): 120 to 170 nM
"Oc1nc(-c2ccccn2)nc2c(-c3ncccc3F)csc12 [Compound 27, 7-(3-Fluoropyridin-2-yl)-2-(pyridin-2-yl)thieno[3,2-d]pyrimidin-4-ol]",76 to 100,51 to 75,76 to 100,51 to 75,76 to 100,51 to 75,76 to 100,76 to 100,76 to 100,76 to 100,–,"IC50 (KRas Q61H mutant; with SOS): 1000 to 4990 nM; IC50 ([18]; MIA PaCa-2, MIA PaCa-2): 1 to 4.99 µM; inhibition at 10 µM ([18]; 10 μM, MIA PaCa-2, read-out: % inh cell proliferation (10 μM) in MIA PaCa-2): 76 to 100%; inhibition at 20 µM (Rac-1 [2]; with SOS, read-out: Rac-1 + SOS: % inh.): 76 to 100%; inhibition at 20 µM (Rho-A [3]; with SOS, read-out: Rho-A + SOS: % inh.): 76 to 100%"
Nc1nc2c(ncn2[C@@H]2O[C@H](COP(=O)(O)OP(=O)(O)O)[C@@H](O)[C@H]2O)c(=O)[nH]1 [GDP],–,–,–,–,–,–,–,–,–,–,single to double digit picomolar,–
